The values that follow come from PubChem BioAssay (NCI).

Values joined by “and” are separate entries in the source; they are usually repeats but may differ in a detail not shown here. Equal entries are not always repeated.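 Five compound concentrations were applied to cells in 96-well plates for 48 hours; endpoints were derived by simple linear interpolation of the resulting dose-response curve. At the GI50, growth is halved. TGI: total growth inhibition.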

What all share (assay): NCI-60 cell line screen, 48 h
In assay [1] the test system is A549 NSCLC.
Assay [2] relates to HL-60(TB) leukemia.
The test system of assay [3] is HT29 colon.
For assay [4], the system named is KM12 colon.
Assay [5] deals with NCI-H522 lung.
The subject of assay [6] is SNB-19 CNS.
Assay [7] has as its system U251 CNS.
Assay [8] has as its system UO-31 renal.
Assay [9] relates to HS 578T breast.
Assay [10] relates to MDA-MB-231 breast.

Regarding `Cc1c2cc[n+](C)cc2c(COC2OC(CO)C(O)C2O)c2c3ccccc3n(C)c12` (stereo not given), the TGI in assay [1] is > 100 µM; in [2], > 100 µM; in assay [3], > 100 µM; in assay [4], > 100 µM; in assay [5], > 100 µM; in assay [6], > 95.7 µM. Also, the TGI in [7] and in assay [8] was > 100 µM each time.

Take `COc1cc2c(cc1-c1c(C)noc1C)ncc1nc(C3CCCCC3)n(C3CCC(OC(F)F)CC3)c12` (stereo not given): the GI50 in assay [1] was 2.89 µM; in [2] it was 1.26 µM; in [9] it was 3.74 µM; in assay [4], 3.43 µM; in [10] it was 1.72 µM. In addition, the TGI in assay [1] was > 100 µM; in assay [2], 3.97 µM; in assay [9] it was > 100 µM; in assay [4], > 100 µM; in assay [10] it was > 100 µM.

On to `CC(=O)O[C@H]1C(=O)[C@]2(C)[C@@H](OC(=O)OCC(O)CO)C[C@H]3OC[C@@]3(OC(C)=O)[C@H]2[C@H](OC(=O)c2ccccc2)[C@]2(O)C[C@H](OC(=O)[C@H](O)[C@@H](NC(=O)c3ccccc3)c3ccccc3)C(C)=C1C2(C)C` (stereo not given in full), for which the TGI in [1] was > 100 µM; in assay [9] it was < 0.01 µM; in [10], 17.2 µM; in assay [6] it was > 100 µM; in [7], 15.6 µM; in assay [8], > 100 µM.

With `CC(=O)OC1CC2(O)C(CCC3(C)C(c4ccc(=O)oc4)CCC32O)C2(C)CCC(O)C=C12` (stereo not given), the GI50 was 0.00624 µM in assay [1]; 0.0375 µM in [2]; 0.0592 µM in [3]; 0.033 µM and 0.0814 µM in assay [4]; 0.0375 µM in assay [7]; 0.0667 µM in assay [8]. Further, the TGI in assay [1] was 0.0272 µM; in assay [2] it was 0.0144 µM and 0.071 µM; in [4], 0.213 µM and 0.676 µM; in assay [5], 0.00626 µM; in assay [6] it was 0.225 µM and 0.244 µM; in assay [7], 0.151 µM and 0.109 µM. Further, the TGI in [8] was 0.131 µM and 0.095 µM.

With `CC(C)(C)CC(C)(C)Cc1ccc(OCCOCC[N+](C)(C)Cc2ccccc2)cc1`, the GI50 is 5.06 µM in assay [1]; 0.365 µM in [2]; 2.03 µM in assay [9]; 1.5 µM in assay [3]; 1.51 µM in assay [10]; 1.55 µM in [5]. Moreover, the GI50 in [7] is 1.56 µM; in assay [8] it was 14.2 µM. Besides, the TGI was determined as 19.7 µM in assay [1]; 1.93 µM in [2]; 4.75 µM in assay [9]; 3.1 µM in assay [3]; 3.08 µM in assay [10]; 4.45 µM in assay [5]. Moreover, the TGI was found to be 3.08 µM in [7] and 34.7 µM in assay [8].

Regarding `Cc1c2cc[n+](C)cc2c(C)c2c1[nH]c1ccc(O)cc12`, the TGI is 99.3 µM in assay [1]; > 87.9 µM in assay [2]; 5.7 µM in assay [9]; > 81.1 µM in assay [3]; > 86.9 µM in [4]; > 100 µM in assay [10]. In addition, the TGI in [5] was 55.9 µM; in [6], 22.5 µM; in assay [7] it was 25 µM; in assay [8], 86.8 µM.

In the case of `CCOC(=O)c1c(NC(=S)NCc2ccccc2)sc2c1CCN(C)C2`, the TGI was > 100 µM in [1]; 36.2 µM in assay [2]; > 100 µM in assay [9]; > 100 µM in assay [3]; > 100 µM in [4]; > 100 µM in [10]. Besides, the TGI in assay [6] and in assay [8] was > 100 µM in each case.

For `O=c1c(-c2ccccc2)c[nH]c2cc([N+](=O)[O-])c(/C(Cl)=C/c3ccccc3)cc12`, the TGI in [1] is 19.6 µM; in [2], 31.6 µM; in assay [3] it was > 51.6 µM; in assay [4] it was 38.6 µM; in [5], 16.3 µM; in [6], > 54.5 µM. Also, the TGI in assay [7] is 24.4 µM; in assay [8], 36.8 µM.

Regarding `COc1cccc2c1C(=O)c1c(O)c3c(c(O)c1C2=O)C[C@@](O)(C(C)=O)C[C@@H]3OC1CC(N)C(O)C(C)O1` (stereo not given in full), the GI50 in assay [1] was 0.0153 µM; in [3], 0.0246 µM; in assay [4], 0.0443 µM; in assay [10], 0.0534 µM; in assay [5], < 0.0155 µM; in assay [6], < 0.0135 µM. Moreover, in assay [7], the GI50 was < 0.0145 µM.

On to `CN1CCN(c2ccc3nc(-c4ccc(OCCCN5C(=O)c6cccc7cccc(c67)C5=O)cc4)[nH]c3c2)CC1`, for which the GI50 in [1] is 16.3 µM; in assay [2], 3.13 µM; in [9], 2.11 µM; in assay [10] it was 1.41 µM; in [5], 24.9 µM; in assay [6], 31 µM. Moreover, the GI50 in assay [8] was 14.5 µM. Also, the TGI in [1] was 62.4 µM; in [2] it was 7.41 µM; in assay [9], 4.6 µM; in [10], 2.76 µM; in assay [5] it was > 88.8 µM; in assay [6], 69.6 µM. In addition, the TGI in assay [8] was 43.1 µM.
